{"source": "patent US20230338463A1", "about": "“ICD PEPTIDE AND USE THEREOF FOR HAVING CYTOTOXIC ACTIVITY ON CANCER CELLS” (NATIONAL TSING HUA UNIVERSITY, priority 2022, published 2023)", "key": {"PC 9 cells": {"tested_on": "PC 9 cells", "experiment": "Luciferin-luciferase extracellular ATP, PC 9", "type": "cell-based, human", "settings": "PC 9, 2 × IC50, peak at 0.5 hour", "method": "The ATP release from cancer cells were measured using the luciferin-luciferase assay as ATP release had been the iconic feature for immunogenic cell death (ICD).\nPC 9 cells were seeded in the 96 well plate at the density of 10,000 cells/ well and allowed to adhere for 48 hours in the condition described previously for MTT assay. […] All of the three ICD peptides were dissolved in the serum-free RPMI 1640 medium for the cells’ treatment. Cells were treated with serum-free RPMI 1640 medium containing PBS as the control group. After being treated for 0.5, 1, 1.5, and 2 hours, the supernatant of cells was collected separately and stored at -20° C. before the ATP assay. The aliquot of reconstituted rL/L reagent in the ENLITEN ATP assay kit (Promega, Madison, WI, USA) was incubated at room temperature for one hour before using. The collected supernatant of the cells was centrifuged at the speed of 500 xg for 10 minutes and took out 100 µL of the supernatant into the black 96 well plate with clear bottom to avoid cross-talk between wells. […] Measurement of the extracellular ATP chemiluminescence was completed using the Wallac VICTOR 3 Multilabel plate reader (PerkinElmer, Shelton, CT, USA)"}, "MN-11 cells [1]": {"tested_on": "MN-11 cells", "experiment": "Extracellular HMGB1 Western blot, MN-11", "type": "cell-based, murine", "method": "On the other hand, The MN-11 cells were seeded at the density of 1 × 10^5 cells/well and left to adhere for 24 hrs. Cells were treated with Nal-P-113, Bip-P-113 and Dip-P-113 at 2× IC50 for 1 and 4 hours. After treatment of the peptides, the supernatant and lysate of the cells were collected separately for further experiments. The supernatant was collected after centrifugation at the speed of 1,400 ×g. The cell lysate was washed twice using PBS before the sonication of the pellet using bio-disruptor, and the disrupted pellet was centrifuged again for 10 minutes under 14,000 rpm at 4° C. The concentration of the samples was quantified using the Bradford assay. Both supernatants and cell lysate were loaded and run on the sodium dodecyl sulfate polyacrylamide gel electrophoresis (SDS-PAGE), and then electro transferred to a polyvinylidene difluoride (PVDF) membrane (Merck-Millipore, Burlington, Massachusetts, United States) in electro-blot system, 30 V, 400 mA, for 75 mins. The membrane was incubated in blocking buffer (5% skim milk, TBST buffer) for 1 hour in room temperature and washed in TBST buffer three times. […] The secondary antibody of rabbit (diluted in 1: 10000) was incubated following the rinsing with PBST three times for 2 hours the next day in the room temperature before being developed using luminol reagent and imaged by a detected system (ImageQuant LAS 4000 mini)."}, "MN-11 cells [2]": {"tested_on": "MN-11 cells", "experiment": "Tumor re-challenge of cured animals", "type": "in vivo, C57BL/6 mice", "settings": "n=5", "method": "Tumor size was measured every 2 days using a caliper, and the volume of tumors was calculated using the following formula: Tumor size (mm^3) = 0.5×(width^2×length). The survival rates of tumor-bearing mice were observed and recorded"}, "MN-11 cells [3]": {"tested_on": "MN-11 cells", "experiment": "Extracellular cytochrome c ELISA, MN-11", "type": "cell-based, murine", "method": "The cells were treated with 2× IC50 Nal-P-113 (FIG. 8A), Bip-P-113 (FIG. 8B), and Dip-P-113 (FIG. 8C) for 0.5, 1, 1.5, 2, and 4 h, respectively. Untreated cells were used as a control. Results are presented as mean ± SD of three independent experiments. **P<0.01; ***P<0.001 compared with control.\nNot only that the amount of supernatant cytochrome c release from MN-11 cells was measured by ELISA assay to reveal peptide induced mitochondrial DAMPs. Five time points (0.5, 1, 1.5, 2 and 4 hours) were used to quantify the amount of cytochrome c released and the results were shown in FIGS. 8A-8C. Nal-P-113 (FIG. 8A) and Dip-P-113 (FIG. 8C) induced a relatively high amount of cytochrome c compared to Bip-P-113 (FIG. 8B). In the Nal-P-113 (FIG. 8A) treated group, the amount of cytochrome c release has come to a maximal value of nearly 25 ng/mL at 2 hours while the minimum value of 10 ng/mL at 30 minutes has been observed. The highest amounts of cytochrome c detected in the supernatant for Dip-P-113 (FIG. 8C) was around 35 ng/mL at 4 hours and the lower amount around 18 ng/mL at 30 minutes."}, "MN-11 cells [4]": {"tested_on": "MN-11 cells", "experiment": "Luciferin-luciferase extracellular ATP, MN-11", "type": "cell-based, murine", "settings": "MN-11, 2 × IC50, peak at 0.5-hour", "method": "On the other hand, MN-11 cells were seeded at the density of 25,000 cells/ well in the 96 well plate and allowed to adhere for 24 hours. Cells were treated with Nal-P-113, Bip-P-113 and Dip-P-113 at 2× IC50 for 0.5, 1, 1.5, and 2 hours. Untreated cells served as the control group. After being treated for different time points (0.5, 1, 1.5, and 2 hours), the supernatant of cells was analyzed using the ENLITEN ATP luciferase assay kit (Promega, Madison, WI, USA). The level of the extracellular ATP chemiluminescence was measured at 560 nm using the Wallac VICTOR 3 Multilabel plate reader (PerkinElmer, Shelton, CT, USA).\nATP release from MN-11 cells were measured using the luciferin-luciferase assay after peptide (2 × IC50) treatment (FIGS. 6B-6D). Nal-P-113 and Dip-P-113 reached the relative light unit (~ 11,000 RLU) peak at 0.5-hour, and Bip-P-113 reached the highest peak at 1 hour (~ 13,000 RLU)."}}, "note": "Non-standard residues stand in square brackets, D forms with d. Residues, ends and D or L forms follow the SMILES beside them. 2Nal = N[C@@H](Cc1ccc2ccccc2c1)C(=O)O", "data": [{"smiles": "CC(=O)N[C@@H](C)C(=O)N[C@@H](CCCCN)C(=O)N[C@@H](CCCNC(=N)N)C(=O)N[C@@H](Cc1ccc2ccccc2c1)C(=O)N[C@@H](Cc1ccc2ccccc2c1)C(=O)NCC(=O)N[C@@H](Cc1ccc(O)cc1)C(=O)N[C@@H](CCCCN)C(=O)N[C@@H](CCCNC(=N)N)C(=O)N[C@@H](CCCCN)C(=O)N[C@@H](Cc1ccccc1)C(=O)N[C@@H](Cc1ccc2ccccc2c1)C(N)=O", "note": "[SEQ ID NO:3, Ac-AKR Nal Nal GYKRKFNal-NH2] (Ac-AKR[2Nal][2Nal]GYKRKF[2Nal]-NH2)", "values": [{"measurement": "ATP release, highest value (relative light unit)", "setting": "PC 9 cells", "value": "around 10,000 RLU"}, {"measurement": "HMGB1 in supernatant", "setting": "MN-11 cells [1]; MN-11, 2× IC50, 1 hour", "value": "observed in the supernatant"}, {"measurement": "HMGB1 in supernatant", "setting": "MN-11 cells [1]; MN-11, 2× IC50, 4 hours", "value": "still a significant concentration"}, {"measurement": "protection from MN-11 cells re-challenge", "setting": "MN-11 cells [2]; animals with complete regression, s.c. re-challenge", "value": "All animals were protected"}, {"measurement": "survival after re-challenge", "setting": "MN-11 cells [2]; until the end of the experiments (55 days)", "value": "stayed alive"}, {"measurement": "cytochrome c release, minimum / lower amount", "setting": "MN-11 cells [3]; MN-11, 2× IC50, at 30 minutes", "value": 10, "unit": "ng/mL"}, {"measurement": "cytochrome c release, maximal value", "setting": "MN-11 cells [3]; MN-11, 2× IC50, at 2 hours", "value": "~25", "unit": "ng/mL"}, {"measurement": "ATP release, relative light unit peak", "setting": "MN-11 cells [4]", "value": "~ 11,000 RLU"}]}]}
